Reference: patent US11964973B2 (priority 2019, dated 2024)

These compounds were tested against human DGKζ (Homo sapiens (Human), UniProt Q13574) (assay: biochemical). Conditions: Table A; liposome (LIPGLO) assay; read-out: DGKζ.
Sequence of human DGKζ (Q13574 whole entry, looked up): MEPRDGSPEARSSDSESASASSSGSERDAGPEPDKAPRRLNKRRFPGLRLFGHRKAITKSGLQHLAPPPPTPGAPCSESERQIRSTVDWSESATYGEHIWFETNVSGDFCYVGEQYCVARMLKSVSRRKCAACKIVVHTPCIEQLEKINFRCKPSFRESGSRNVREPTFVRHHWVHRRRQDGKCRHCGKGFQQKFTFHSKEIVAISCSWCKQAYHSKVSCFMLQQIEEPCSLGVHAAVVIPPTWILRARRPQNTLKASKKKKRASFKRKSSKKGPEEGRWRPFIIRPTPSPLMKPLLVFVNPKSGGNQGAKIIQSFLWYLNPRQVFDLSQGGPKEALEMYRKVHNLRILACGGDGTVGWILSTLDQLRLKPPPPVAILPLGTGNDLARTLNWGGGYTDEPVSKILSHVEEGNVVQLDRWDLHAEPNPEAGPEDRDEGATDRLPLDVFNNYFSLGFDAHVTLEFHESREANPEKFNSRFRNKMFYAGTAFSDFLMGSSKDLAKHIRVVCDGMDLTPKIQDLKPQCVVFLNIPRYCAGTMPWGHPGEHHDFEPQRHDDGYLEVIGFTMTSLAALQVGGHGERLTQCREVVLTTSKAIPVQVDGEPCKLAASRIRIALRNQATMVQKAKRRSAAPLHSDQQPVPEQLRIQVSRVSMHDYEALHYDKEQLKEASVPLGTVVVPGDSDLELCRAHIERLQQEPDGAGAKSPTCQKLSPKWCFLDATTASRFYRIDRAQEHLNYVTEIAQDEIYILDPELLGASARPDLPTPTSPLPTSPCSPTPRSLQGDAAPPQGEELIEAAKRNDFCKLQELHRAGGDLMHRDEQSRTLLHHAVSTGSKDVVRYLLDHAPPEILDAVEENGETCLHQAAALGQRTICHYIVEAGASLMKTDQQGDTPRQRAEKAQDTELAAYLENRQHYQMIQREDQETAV
Format: biochemical
For `CC[C@@H]1CN(c2cc(=O)n(C)c3ccc(C#N)nc23)CC[C@H]1Oc1ccc(OC(C)C)cn1` [Example 192, 8-((3R,4R)-3-ethyl-4-((5-isopropoxypyridin-2-yl)oxy)piperidin-1-yl)-5-methyl-6-oxo-5,6-dihydro-1,5-naphthyridine-2-carbonitrile], the IC50 was 420 nM.
Compound `CC[C@@H]1CN(c2cc(=O)n(C)c3ccc(C#N)nc23)CC[C@@H]1Oc1ccc(OC(C)C)cn1` [Example 204, 8-((3R,4S)-3-ethyl-4-((5-isopropoxypyridin-2-yl)oxy)piperidin-1-yl)-5-methyl-6-oxo-5,6-dihydro-1,5-naphthyridine-2-carbonitrile] has an IC50 of 330 nM.
`Cn1c(=O)nc(N2CC[C@@H](Oc3cccc(C(F)(F)F)c3)[C@H](O)C2)c2nc(C#N)ccc21` (single isomer, unassigned) [Example 273, (+/−)-trans-4-(3-hydroxy-4-(3-(trifluoromethyl)phenoxy)piperidin-1-yl)-1-methyl-2-oxo-1,2-dihydropyrido[3,2-d]pyrimidine-6-carbonitrile] was tested, and the IC50 was 4700 nM.
`CC[C@@H]1CN(c2cc(=O)n(C)c3ccc(C#N)nc23)CC[C@@H]1Oc1ccc(OC(C)C)cn1` [Example 203, 8-((3R,4S)-3-ethyl-4-((5-isopropoxypyridin-2-yl)oxy)piperidin-1-yl)-5-methyl-6-oxo-5,6-dihydro-1,5-naphthyridine-2-carbonitrile] showed an IC50 of 230 nM.

Same assay, conditions: liposome (LIPGLO) assay; read-out: DGKζ LIPGLO IC50
For `CC[C@@H]1CN(c2cc(=O)n(C)c3ccc(C#N)nc23)CC[C@H]1Oc1ccc(OC(C)C)cc1` [Example 161, 8-((3R,4R)-3-ethyl-4-(4-isopropoxyphenoxy)piperidin-1-yl)-5-methyl-6-oxo-5,6-dihydro-1,5-naphthyridine-2-carbonitrile], the IC50 was 540 nM.

These compounds were tested on Human venous whole blood (IFN-γ) (assay: Human whole blood IFN-γ assay). Conditions: Homo sapiens, 24 h, human whole blood, anti-CD3 plus anti-CD28, 24 hours; read-out: INFg Whole Blood Normalized Agonist EC50.
Format: cell-based
Method: Assay 10: Human Whole Blood IFN-γ Assay
Human venous whole blood (22.5 μL per well), obtained from healthy donors, was pre-treated with compounds for one hour at 37° C. in a humidified 95% air/5% CO2 incubator. The blood was stimulated with 2.5 μL anti-human CD3 and anti-CD28 mAb at a final concentration of 1 μg/mL each for 24 hours at 37° C. IFN-γ in the supernatants was measured using AlphLISA kit (Cat #AL217).
`CC[C@@H]1CN(c2cc(=O)n(C)c3ccc(C#N)nc23)CC[C@H]1Oc1ccc(OC(C)C)cc1` [Example 161, 8-((3R,4R)-3-ethyl-4-(4-isopropoxyphenoxy)piperidin-1-yl)-5-methyl-6-oxo-5,6-dihydro-1,5-naphthyridine-2-carbonitrile] was tested, and the EC50 was 2400 nM.
With `C[C@@H]1CN(c2cc(=O)n(C)c3ccc(C#N)nc23)CC[C@H]1Oc1ccc(F)cc1` (single isomer, unassigned) [Example 129] the EC50 was 20000 nM.
For `C[C@@H]1CN(c2cc(=O)n(C)c3ccc(C#N)nc23)CC[C@H]1Oc1c(F)cccc1F` [Example 125, 8-((3R,4R)-4-(2,6-difluorophenoxy)-3-methylpiperidin-1-yl)-5-methyl-6-oxo-5,6-dihydro-1,5-naphthyridine-2-carbonitrile], the EC50 was 20000 nM.
`CC[C@@H]1CN(c2cc(=O)n(C)c3ccc(C#N)nc23)CC[C@H]1Oc1cccc(C2CC2)c1` (racemic) [Example 155, 8-((3R,4R)-4-(3-cyclopropylphenoxy)-3-ethylpiperidin-1-yl)-5-methyl-6-oxo-5,6-dihydro-1,5-naphthyridine-2-carbonitrile] was tested, and the EC50 was 20000 nM.
`CC[C@@H]1CN(c2cc(=O)n(C)c3ccc(C#N)nc23)CC[C@H]1Oc1ccc(C(F)(F)F)cc1` (racemic) [Example 146, 8-((3R,4R)-3-ethyl-4-(4-(trifluoromethyl)phenoxy)piperidin-1-yl)-5-methyl-6-oxo-5,6-dihydro-1,5-naphthyridine-2-carbonitrile] gave an EC50 of 1700 nM.
`C[C@@H]1CN(c2cc(=O)n(C)c3ccc(C#N)nc23)CC[C@H]1Oc1ccc(F)cc1` [Example 128, 8-((3R,4R)-4-(4-fluorophenoxy)-3-methylpiperidin-1-yl)-5-methyl-6-oxo-5,6-dihydro-1,5-naphthyridine-2-carbonitrile] was tested, and the EC50 was 20000 nM.
With `CC[C@@H]1CN(c2cc(=O)n(C)c3ccc(C#N)nc23)CC[C@H]1Oc1ccc(C(C)(C)C)cc1` (racemic) [Example 152, 8-((3R,4R)-4-(4-(tert-butyl)phenoxy)-3-ethylpiperidin-1-yl)-5-methyl-6-oxo-5,6-dihydro-1,5-naphthyridine-2-carbonitrile] the EC50 was 1500 nM.
Work on `CC[C@@H]1CN(c2cc(=O)n(C)c3ccc(C#N)nc23)CC[C@H]1Oc1ccc(C(C)(C)CC)cc1` (single isomer, unassigned) [Example 150] yielded an EC50 of 1400 nM.

Same assay, conditions: Homo sapiens, human whole blood IFN-γ; read-out: INFg Whole Blood
`CC[C@@H]1CN(c2cc(=O)n(C)c3ccc(C#N)nc23)CC[C@H]1Oc1ccc(OC(C)C)cn1` [Example 192, 8-((3R,4R)-3-ethyl-4-((5-isopropoxypyridin-2-yl)oxy)piperidin-1-yl)-5-methyl-6-oxo-5,6-dihydro-1,5-naphthyridine-2-carbonitrile] was tested, and the EC50 was 290 nM.
With `C[C@@H]1CN(c2c(C#N)c(=O)n(C)c3ccc(C#N)nc23)CC[C@@H]1Oc1ccc(C(F)(F)F)cc1` [Example 189, 5-methyl-8-((3R,4S)-3-methyl-4-(4-(trifluoromethyl)phenoxy)piperidin-1-yl)-6-oxo-5,6-dihydro-1,5-naphthyridine-2,7-dicarbonitrile] the EC50 was 20000 nM.
Compound `C[C@@H]1CN(c2cc(=O)n(C)c3ccc(C#N)nc23)CC[C@@H]1Oc1ccc(C(F)(F)F)cn1` [Example 225, 5-methyl-8-((3R,4S)-3-methyl-4-((5-(trifluoromethyl)pyridin-2-yl)oxy)piperidin-1-yl)-6-oxo-5,6-dihydro-1,5-naphthyridine-2-carbonitrile] has an EC50 of 1800 nM.
`CC(C)Oc1ccc(OC2CCN(c3cc(=O)n(C)c4ccc(C#N)nc34)CC2(C)C)nc1` (racemic) [Example 232, (+/−) 8-(4-((5-isopropoxypyridin-2-yl)oxy)-3,3-dimethylpiperidin-1-yl)-5-methyl-6-oxo-5,6-dihydro-1,5-naphthyridine-2-carbonitrile] gave an EC50 of 7000 nM.
In the case of `CC(C)c1cccc(O[C@H]2CCN(c3cc(=O)n(C)c4ccc(C#N)nc34)C[C@H]2C)n1` (single isomer, unassigned) [Example 215], the EC50 is reported as 2100 nM.

Same assay, conditions: Homo sapiens, read-out: INFg Whole Blood, human whole blood IFN-γ
Compound `CC[C@@H]1CN(c2cc(=O)n(C)c3ccc(C#N)nc23)CC[C@@H]1Oc1ccc(OC(C)C)cn1` [Example 202, 8-((3R,4S)-3-ethyl-4-((5-isopropoxypyridin-2-yl)oxy)piperidin-1-yl)-5-methyl-6-oxo-5,6-dihydro-1,5-naphthyridine-2-carbonitrile] has an EC50 of 2000 nM.

Same assay, conditions: human whole blood IFN-γ; read-out: INFg Whole Blood
With `C[C@@H]1CN(c2cc(=O)n(C)c3ccc(C#N)nc23)CC[C@@H]1Oc1ccc(C(F)(F)F)cn1` (single isomer, unassigned) [Example 227] the EC50 was 4200 nM.
With `CO[C@@H]1CN(c2cc(=O)n(C)c3ccc(C#N)nc23)CC[C@H]1Oc1cccc(C(F)(F)F)c1` (racemic) [Example 262, (±)-trans-8-(3-methoxy-4-(3-(trifluoromethyl)phenoxy)piperidin-1-yl)-5-methyl-6-oxo-5,6-dihydro-1,5-naphthyridine-2-carbonitrile] the EC50 was 12000 nM.
In the case of `CO[C@@H]1CN(c2cc(=O)n(C)c3ccc(C#N)nc23)CC[C@H]1Oc1cccc(C(F)(F)F)c1` (racemic) [Example 261, (±)-trans-8-(3-methoxy-4-(3-(trifluoromethyl)phenoxy)piperidin-1-yl)-5-methyl-6-oxo-5,6-dihydro-1,5-naphthyridine-2-carbonitrile], the EC50 is reported as 910 nM.
Compound `CO[C@@H]1CN(c2nc(=O)n(C)c3ccc(C#N)nc23)CC[C@H]1Oc1cccc(C(F)(F)F)c1` (racemic) [Example 276] has an EC50 of 1000 nM.
`CC(C)Oc1ccc(O[C@H]2CCN(c3cc(=O)n(C)c4ccc(C#N)nc34)C[C@@H]2O)nc1` (racemic) [Example 268, (±)-trans-8-(3-hydroxy-4-((5-isopropoxypyridin-2-yl)oxy)piperidin-1-yl)-5-methyl-6-oxo-5,6-dihydro-1,5-naphthyridine-2-carbonitrile] was tested, and the EC50 was 13000 nM.

Same assay, conditions: human whole blood, anti-CD3 plus anti-CD28, 24 hours; read-out: INFg Whole Blood Normalized Agonist EC50
`C[C@@H]1CN(c2cc(=O)n(C)c3ccc(C#N)nc23)CC[C@H]1Oc1ccc(F)c(F)c1` (single isomer, unassigned) [Example 105] showed an EC50 of 2000 nM.
Work on `C[C@@H]1CN(c2cc(=O)n(C)c3ccc(C#N)nc23)CC[C@H]1Oc1ccc(OC(F)(F)F)cc1` (single isomer, unassigned) [Example 81, 6-cyano-1-methyl-4-(trans-3-methyl-4-(4-(trifluoromethoxy)phenoxy)piperidin-1-yl)-1,5-naphthyridin-2(1H)-one (rel)] yielded an EC50 of 2000 nM.
With `CC[C@@H]1CN(c2cc(=O)n(C)c3ccc(C#N)nc23)CC[C@H]1Oc1ccc(C(C)C)cc1` (single isomer, unassigned) [Example 145] the EC50 was 7800 nM.

Same assay, conditions: read-out: INFg Whole Blood; human whole blood IFN-γ
With `CCO[C@@H]1CN(c2nc(=O)n(C)c3ccc(C#N)nc23)CC[C@H]1Oc1cccc(C(F)(F)F)c1` [Example 279, 4-((3R,4R)-3-ethoxy-4-(3-(trifluoromethyl)phenoxy)piperidin-1-yl)-1-methyl-2-oxo-1,2-dihydropyrido[3,2-d]pyrimidine-6-carbonitrile] the EC50 was 8700 nM.

The compounds below were run on human venous whole blood, CD8 positive population (pERK) (assay: DGK human whole blood pERK assay). Conditions: Homo sapiens, CD8 positive, human whole blood pERK; read-out: DGK HWB.
Format: cell-based
Method: Assay 11: DGK Human Whole Blood pERK Assay
Human whole blood ERK phosphorylation assay was performed with human venous whole blood obtained from healthy donors (drawn with Heparin as anti-coagulant). […] Heparinized human whole blood was added to the compound plate at 9 μL per well and incubated for one hour at 37° C. in a humidified 95%, air/5% CO2 incubator. After one hour of compound incubation, 1 μL of human anti-CD3 antibody (in-house) in the presence of cross-linking antibody goat anti-mouse IgG (4 μg/mL) was added to the well at 1 μg/mL final concentration for stimulation of pathway and additionally incubated for 15 minutes at 37° C. […] Samples analyzed using the Intellicyt® iQue Screener PLUS. The pERK activation was quantitated by the percentage of pERK positive population within CD8 positive population.
With `CC1CN(c2c(C#N)c(=O)n(C)c3ccc(C#N)nc23)CCC1N(C)C1CCC(F)(F)CC1` (single isomer, unassigned) [Example 329] the EC50 was 13 µM.

Same assay, conditions: Homo sapiens, CD8 positive, read-out: DGK HWB, human whole blood pERK
For `CC[C@@H]1CN(c2nc(=O)n(C)c3ccc(Cl)nc23)[C@@H](C)C[C@H]1Oc1ccc(OC(C)C)cn1` [Example 300, 6-chloro-4-((2S,4R,5R)-5-ethyl-4-((5-isopropoxypyridin-2-yl)oxy)-2-methylpiperidin-1-yl)-1-methylpyrido[3,2-d]pyrimidin-2(1H)-one], the EC50 was 8.3 µM.
`CC[C@@H]1CN(c2cc(=O)n(C)c3ccc(C#N)nc23)[C@@H](C)C[C@@H]1Oc1ccc(OC(C)C)cn1` [Example 299, 8-((2S,4S,5R)-5-ethyl-4-((5-isopropoxypyridin-2-yl)oxy)-2-methylpiperidin-1-yl)-5-methyl-6-oxo-5,6-dihydro-1,5-naphthyridine-2-carbonitrile] was tested, and the EC50 was 0.78 µM.
